In patent publication US5466698A, “Substituted tetrahydrophyridines and hydroxypiperidines as central nervous system agents” (Warner-Lambert Company, priority 1993, dated 1995):
pIC50: −log10 of the molar value. Where two headings read alike, the source gives them in different places.

Assays:
[1] = target: [^3 H]Spiroperidol Binding (Rattus norvegicus, UniProt P61169); assay: Inhibition of [^3 H]Spiroperidol Binding, receptor assay
[2] = system: Locomotor Activity in Mice; assay: Inhibition of Locomotor Activity in Mice; assay type: in vivo; details: Mus musculus, IP
[3] = system: Brain Dopamine Synthesis in Rats; assay: % Reversal of Brain Dopamine Synthesis in Rats; assay type: in vivo; details: Rattus norvegicus, IP

Chain of [^3 H]Spiroperidol Binding (P61169 whole entry): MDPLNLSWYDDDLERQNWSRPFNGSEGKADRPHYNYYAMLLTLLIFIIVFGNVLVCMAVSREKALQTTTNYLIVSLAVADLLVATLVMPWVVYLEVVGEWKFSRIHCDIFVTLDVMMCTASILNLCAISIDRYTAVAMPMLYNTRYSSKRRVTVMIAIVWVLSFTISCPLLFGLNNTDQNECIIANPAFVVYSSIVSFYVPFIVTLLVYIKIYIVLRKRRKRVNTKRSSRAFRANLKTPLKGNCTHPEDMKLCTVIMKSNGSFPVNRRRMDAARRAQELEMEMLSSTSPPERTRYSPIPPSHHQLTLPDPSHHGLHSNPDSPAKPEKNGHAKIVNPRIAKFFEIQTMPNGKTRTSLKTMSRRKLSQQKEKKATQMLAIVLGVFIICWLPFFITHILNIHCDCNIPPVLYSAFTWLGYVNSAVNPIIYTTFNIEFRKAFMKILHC

SMILES | pIC50 [1] | ED50 [2] | inhibition in vivo at 10 mg/kg [3] | pIC50 ([1]; read-out: Inhibition of [^3 H]Spiroperidol Binding IC50, [^3 H]spiroperidol radioligand)
CS(=O)(=O)Nc1ccc(C#CCCN2CC=C(c3ccccc3)CC2)nc1 [Example 32, N-[6-[4-(3,6-Dihydro-4-phenyl-1(2H)-pyridinyl)-1-butynyl]-3-pyridinyl]methanesulfonamide] | 7.19 | 1.1 mg/kg | – | –
CN(C)c1ccc(C#CCCN2CC=C(c3ccccc3)CC2)nc1 [Example 13, 6-[4-(3,6-Dihydro-4-phenyl-1(2H)-pyridinyl)-1-butynyl]-N,N-dimethyl-3-pyridinamine] | 6.72 | 0.28 mg/kg | 49% | –
O=[N+]([O-])c1ccc(C#CCCN2CC=C(c3ccccc3)CC2)cc1 [Example 10, 1,2,3,6-Tetrahydro-1-[4-(4-nitrophenyl)-3-butynyl]-4-phenylpyridine] | 6.40 | 2.6 mg/kg | 42% | –
CNc1ccc(C#CCCN2CC=C(c3ccccc3)CC2)nc1 [Example 26, 6-[4-(3,6-Dihydro-4-phenyl-1(2H)-pyridinyl)-1-butynyl]-N-methyl-3-pyridinamine] | 6.86 | 0.22 mg/kg | 0% | –
C(#Cc1ccccn1)CCN1CC=C(c2ccccc2)CC1 [Example 14, 1,2,3,6-Tetrahydro-4-phenyl-1-[4-(2-pyridinyl)-3-butynyl]pyridine] | 6.72 | 2.1 mg/kg | 23% | –
C(#Cc1cccnc1)CCCN1CC=C(c2ccccc2)CC1 [Example 7, 3-[5-(3,6-Dihydro-4-phenyl-1(2H)-pyridinyl)-1-pentynyl]pyridine] | 7.11 | 0.72 mg/kg | 48% | –
C(#Cc1cccnc1)CCCN1CC=C(c2cccs2)CC1 [Example 8, 3-[5-[3,6-Dihydro-4-(2-thienyl)-1(2H)-pyridinyl]-1-pentynyl]pyridine] | 6.68 | 2.7 mg/kg | – | –
CS(=O)(=O)N(c1ccc(C#CCCN2CC=C(c3ccccc3)CC2)nc1)S(C)(=O)=O [Example 31, N-(Methylsulfonyl)-N-[6-[4-(3,6-dihydro-4-phenyl-1(2H)-pyridinyl)-1-butynyl]-3-pyridinyl]methanesulfonamide] | 7.03 | 0.53 mg/kg | 0% | –
C(#Cc1ccc2[nH]ccc2c1)CCN1CC=C(c2ccccc2)CC1 [Example 15, 5-[4-(3,6-Dihydro-4-phenyl-1(2H)-pyridinyl)-1-butynyl]-1H-indole] | 7.11 | 1 mg/kg | – | –
Nc1ccc(C#CCCN2CC=C(c3ccccc3)CC2)cn1 [Example 21, 5-[4-(3,6-Dihydro-4-phenyl-1(2H)-pyridinyl)-1-butynyl]-2-pyridinamine] | 7.60 | 0.07 mg/kg | 65% | –
CC(=O)Nc1ccc(C#CCCN2CC=C(c3ccccc3)CC2)nc1 [Example 22, N-[6-[4-(3,6-Dihydro-4-phenyl-1(2H)-pyridinyl)-1-butynyl]-3-pyridinyl]acetamide] | 7.15 | 0.07 mg/kg | 5% | –
C(#Cc1cccnc1)CCN1CC=C(c2ccccc2)CC1 [Example 4, 3-[4-(3,6-Dihydro-4-phenyl-1(2H)-pyridinyl)-1-butynyl]pyridine] | 7.30 | 0.07 mg/kg | 79% | –
C(#Cc1cccs1)CCN1CC=C(c2ccccc2)CC1 [Example 16, 1,2,3,6-Tetrahydro-4-phenyl-1-[4-(2-thienyl)-3-butynyl]pyridine] | 6.94 | 7.6 mg/kg | – | –
Nc1ccc(C#CCCN2CC=C(c3ccccc3)CC2)cc1 [Example 20, 4-[4-(3,6-Dihydro-4-phenyl-1(2H)-pyridinyl)-1-butynyl]benzenamine] | 6.37 | 0.36 mg/kg | 51% | –
CCCNc1ccc(C#CCCN2CC=C(c3ccccc3)CC2)nc1 [Example 30, 6-[4-(3,6-Dihydro-4-phenyl-1(2H)-pyridinyl)-1-butynyl]-N-propyl-3-pyridinamine] | 6.61 | 0.31 mg/kg | – | –
O=C(Nc1ccc(C#CCCN2CC=C(c3ccccc3)CC2)nc1)c1cccs1 [Example 23, N-[6-[4-(3,6-Dihydro-4-phenyl-1(2H)-pyridinyl)-1-butynyl]-3-pyridinyl]-2-thiophenecarboxamide] | 5.96 | 1.5 mg/kg | 0% | –
C(#Cc1cccnc1)CCN1CC=C(c2cccs2)CC1 [Example 3, 3-[4-[3,6-Dihydro-4-(2-thienyl)-1(2H)-pyridinyl]-1-butynyl]pyridine] | 6.45 | 0.54 mg/kg | 53% | –
Nc1ccc(C#CCCN2CC=C(c3ccccc3)CC2)nc1 [Example 19, 6-[4-(3,6-Dihydro-4-phenyl-1(2H)-pyridinyl)-1-butynyl]-3-pyridinamine] | 7.07 | 0.15 mg/kg | 59% | –
Nc1ccc(C#CCCN2CC=C(c3ccc(F)cc3)CC2)cn1 [Example 17, 5-[4-[4-(4-Fluorophenyl)-3,6-dihydro-1(2H)-pyridinyl]-1-butynyl]-2-pyridinamine] | 6.42 | 1.2 mg/kg | 40% | –
CNc1ccc(C#CCCN2CC=C(c3ccccc3)CC2)cc1 [Example 27, 4-[4-(3,6-Dihydro-4-phenyl-1(2H)-pyridinyl)-1-butynyl]-N-methylbenzenamine] | 6.89 | 0.56 mg/kg | 45% | –
CC(=O)Nc1ccc(C#CCCN2CC=C(c3ccccc3)CC2)cn1 [Example 25, N-[5-[4-(3,6-Dihydro-4-phenyl-1(2H)-pyridinyl)-1-butynyl]-2-pyridinyl]acetamide] | – | 0.16 mg/kg | – | –
O=[N+]([O-])c1ccc(C#CCCN2CC=C(c3ccccc3)CC2)nc1 [Example 9, 1,2,3,6-Tetrahydro-1-[4-(5-nitro-2-pyridinyl)-3-butynyl]-4-phenylpyridine] | 6.64 | 6.9 mg/kg | – | –
C(#Cc1ccncc1)CCN1CC=C(c2ccccc2)CC1 [Example 11, 4-[4-(3,6-Dihydro-4-phenyl-1(2H)-pyridinyl)-1-butynyl]pyridine] | 7.36 | 0.1 mg/kg | 79% | –
CNc1ccc(C#CCCN2CC=C(c3ccccc3)CC2)cn1 [Example 29, 5-[4-(3,6-Dihydro-4-phenyl-1(2H)-pyridinyl)-1-butynyl]-N-methyl-2-pyridinamine] | 7.11 | 6.1 mg/kg | 42% | –
CC(=O)Nc1ccc(C#CCCN2CC=C(c3ccccc3)CC2)cc1 [Example 24, N-[4-[4-(3,6-Dihydro-4-phenyl-1(2H)-pyridinyl)-1-butynyl]phenyl]acetamide] | 7.30 | 0.23 mg/kg | – | –
C(#Cc1cnc2ccccc2c1)CCN1CC=C(c2ccccc2)CC1 [Example 1, 3-[4-(3,6-Dihydro-4-phenyl-1(2H)-pyridinyl)-1-butynyl]quinoline] | 7.39 | – | 28% | –
C(#Cc1cncc2ccccc12)CCN1CC=C(c2ccccc2)CC1 [Example 2, 4-[4-(3,6-Dihydro-4-phenyl-1(2H)-pyridinyl)-1-butynyl]isoquinoline] | 7.00 | 2.1 mg/kg | 32% | –
Nc1ccc(C#CCCN2CC=C(c3cccs3)CC2)nc1 [Example 12, 6-[4-[3,6-Dihydro-4-(2-thienyl)-1(2H)-pyridinyl]-1-butynyl]-3-pyridinamine] | 6.49 | 0.36 mg/kg | 46% | –
C(#Cc1cnc2ccccc2c1)CCCN1CC=C(c2ccccc2)CC1 [Example 6, 3-[5-(3,6-Dihydro-4-phenyl-1(2H)-pyridinyl)-1-pentynyl]quinoline] | – | 3.6 mg/kg | – | –
CNc1ccc(C#CCCN2CC=C(c3ccc(F)cc3)CC2)cn1 [Example 28, 5-[4-[4-(9-Fluorophenyl)-3,6-dihydro-1(2H)-pyridinyl]-1-butynyl]-N-methyl-2-pyridinamine] | – | 0.6 mg/kg | 57% | 5.90
